Source: US6518243B1, “Desleucyl glycopeptide antibiotics and methods of making same” (Trustees of Princeton University, priority 1999, dated 2003)

Key:
E. faceium (ATCC 49624) = test: Zone of inhibition screen, 96 well agar array format;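 also: score 3 means fourfold and score 4 sixteenfold the reference zone size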; type: cell-based, E. faecium; conditions: zone of inhibition relative to 1 mg/ml stock solution of p-chlorobiphenylvancomycin
How it was run: (§1)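 Each compound was tested for antibacterial activity against a shared bacterial panel, with screening carried out on agar in a 96-well array.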

S aureus ATCC 29213 = test: MIC determination in BHI media, OD600; type: cell-based; conditions: BHI + 0.1% casamino acids, 18 hours at 37° C., ≧90% OD600 inhibition
How it was run: (§2)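 Log-phase bacteria were diluted to about 5×10^5 CFU/ml and exposed to test compounds serially diluted in DMSO. Following 18 hours at 37° C, growth was read by plate absorbance to assign the MIC.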

E. faecalis ATCC 29212 = test: MIC determination in BHI media, OD600; type: cell-based; conditions: BHI + 0.1% casamino acids, 18 hours at 37° C., ≧90% OD600 inhibition
How it was run: as §2

S. Aureus ATCC 33591 = test: MIC determination in BHI media, OD600; type: cell-based; conditions: BHI + 0.1% casamino acids, 18 hours at 37° C., ≧90% OD600 inhibition
How it was run: as §2

E. faecium ATCC 49624 = test: MIC determination in BHI media, OD600; type: cell-based; conditions: BHI + 0.1% casamino acids, 18 hours at 37° C., ≧90% OD600 inhibition
How it was run: as §2

E. faecium CL 4931 = test: MIC determination in BHI media, OD600; type: cell-based; conditions: BHI + 0.1% casamino acids, 18 hours at 37° C., ≧90% OD600 inhibition
How it was run: as §2

E. faecalis (CL 4877) = test: Zone of inhibition screen, 96 well agar array format; type: cell-based; design: scale not given here; conditions: zone of inhibition relative to 1 mg/ml stock solution of p-chlorobiphenylvancomycin
How it was run: as §1

E. Faecalis CL 4877 = test: MIC determination in BHI media, OD600; type: cell-based; conditions: BHI + 0.1% casamino acids, 18 hours at 37° C., ≧90% OD600 inhibition
How it was run: as §2

S. aureus (ATCC 29213) = test: Zone of inhibition screen, 96 well agar array format; type: cell-based; design: scale not given here; conditions: zone of inhibition relative to 1 mg/ml stock solution of p-chlorobiphenylvancomycin
How it was run: as §1

| Structure (SMILES) | MIC S. aureus ATCC 29213 (S aureus ATCC 29213) [µg/mL] | MIC E. faecalis ATCC 29212 (E. faecalis ATCC 29212) [µg/mL] | MIC S. aureus ATCC 33591 (S. Aureus ATCC 33591) [µg/mL] | MIC E. faecium ATCC 49624 (E. faecium ATCC 49624) [µg/mL] | MIC E. faecium CL 4931 (E. faecium CL 4931) [µg/mL] | MIC E. faecalis CL 4877 (E. Faecalis CL 4877) [µg/mL] | zone score, E. faecium ATCC 49624 (E. faceium (ATCC 49624)) | zone score, E. faecalis CL 4877 (E. faecalis (CL 4877)) | zone score, S. aureus ATCC 29213 (S. aureus (ATCC 29213)) |
| --- | --- | --- | --- | --- | --- | --- | --- | --- | --- |
| CC(C)[C@H](N)C(=O)N[C@H]1C(=O)N[C@@H](CC(N)=O)C(=O)N[C@H]2C(=O)N[C@H]3C(=O)N[C@H](C(=O)N[C@@H](C(=O)O)c4cc(O)cc(O)c4-c4cc3ccc4O)[C@H](O)c3ccc(c(Cl)c3)Oc3cc2cc(c3O[C@@H]2O[C@H](CO)[C@@H](O)[C@H](O)[C@H]2O[C@@H]2C[C@@](C)(NCc3ccc(-c4ccc(Cl)cc4)cc3)[C@@H](O)[C@@H](C)O2)Oc2ccc(cc2Cl)[C@H]1O [Compound 20] | 0.25 | 0.78 | 0.39 | 0.25 |  |  | 2 |  |  |
| CC(N)C(=O)NCC(=O)NC1C(=O)NC(CC(N)=O)C(=O)NC2C(=O)NC3C(=O)NC(C(=O)NC(C(=O)O)c4cc(O)cc(O)c4-c4cc3ccc4O)C(O)c3ccc(c(Cl)c3)Oc3cc2cc(c3OC2OC(CO)C(O)C(O)C2OC2CC(C)(NCc3ccc(-c4ccc(Cl)cc4)cc3)C(O)C(C)O2)Oc2ccc(cc2Cl)C1O (stereo not shown) [Compound 36] | 0.39 | 0.78 | 0.39 | 0.12 |  |  | 2 |  |  |
| CSCCC(N)C(=O)NC1C(=O)NC(CC(N)=O)C(=O)NC2C(=O)NC3C(=O)NC(C(=O)NC(C(=O)O)c4cc(O)cc(O)c4-c4cc3ccc4O)C(O)c3ccc(c(Cl)c3)Oc3cc2cc(c3OC2OC(CO)C(O)C(O)C2OC2CC(C)(NCc3ccc(-c4ccc(Cl)cc4)cc3)C(O)C(C)O2)Oc2ccc(cc2Cl)C1O (stereo not shown) [Compound 41] | 0.39 | 0.78 | 0.39 | 0.25 |  |  | 2 | 2 |  |
| CC1OC(OC2C(Oc3c4cc5cc3Oc3ccc(cc3Cl)C(O)C3NC(=O)C(NC(=O)C5NC(=O)C(CC(N)=O)NC(=O)C(NC(=O)C(N)CCCNC(=O)c5cnccn5)C(O)c5ccc(c(Cl)c5)O4)c4ccc(O)c(c4)-c4c(O)cc(O)cc4C(C(=O)O)NC3=O)OC(CO)C(O)C2O)CC(C)(NCc2ccc(-c3ccc(Cl)cc3)cc2)C1O (stereo not shown) [Compound 83] | 0.39 | 0.78 | 0.78 | 0.25 | 25 |  | 2 |  | 2 |
| CC(NCC(N)C(=O)NC1C(=O)NC(CC(N)=O)C(=O)NC2C(=O)NC3C(=O)NC(C(=O)NC(C(=O)O)c4cc(O)cc(O)c4-c4cc3ccc4O)C(O)c3ccc(c(Cl)c3)Oc3cc2cc(c3OC2OC(CO)C(O)C(O)C2OC2CC(C)(NCc3ccc(-c4ccc(Cl)cc4)cc3)C(O)C(C)O2)Oc2ccc(cc2Cl)C1O)=C1C(=O)CC(C)(C)CC1=O (stereo not shown) [Compound 56] | 0.25 | 0.78 | 0.25 | 0.12 |  |  | 2 |  |  |
| CC1OC(OC2C(Oc3c4cc5cc3Oc3ccc(cc3Cl)C(O)C3NC(=O)C(NC(=O)C5NC(=O)C(CC(N)=O)NC(=O)C(NC(=O)C(N)CSC(C)(C)C)C(O)c5ccc(c(Cl)c5)O4)c4ccc(O)c(c4)-c4c(O)cc(O)cc4C(C(=O)O)NC3=O)OC(CO)C(O)C2O)CC(C)(NCc2ccc(-c3ccc(Cl)cc3)cc2)C1O (stereo not shown) [Compound 334] | 0.25 | 0.78 | 0.25 | 0.12 | 25 |  |  |  |  |
| CCCCC(N)C(=O)NC1C(=O)NC(CC(N)=O)C(=O)NC2C(=O)NC3C(=O)NC(C(=O)NC(C(=O)O)c4cc(O)cc(O)c4-c4cc3ccc4O)C(O)c3ccc(c(Cl)c3)Oc3cc2cc(c3OC2OC(CO)C(O)C(O)C2OC2CC(C)(NCc3ccc(-c4ccc(Cl)cc4)cc3)C(O)C(C)O2)Oc2ccc(cc2Cl)C1O (stereo not shown) [Compound 42] | 0.39 | 0.78 | 0.39 | 0.39 |  |  | 2 |  |  |

Further lines, with some results ahead:

| MIC S. aureus ATCC 29213 (S aureus ATCC 29213) [µg/mL] | MIC E. faecalis ATCC 29212 (E. faecalis ATCC 29212) [µg/mL] | MIC S. aureus ATCC 33591 (S. Aureus ATCC 33591) [µg/mL] | MIC E. faecium ATCC 49624 (E. faecium ATCC 49624) [µg/mL] | MIC E. faecium CL 4931 (E. faecium CL 4931) [µg/mL] | MIC E. faecalis CL 4877 (E. Faecalis CL 4877) [µg/mL] | Structure (SMILES) | zone score, E. faecium ATCC 49624 (E. faceium (ATCC 49624)) | zone score, E. faecalis CL 4877 (E. faecalis (CL 4877)) | zone score, S. aureus ATCC 29213 (S. aureus (ATCC 29213)) |
| --- | --- | --- | --- | --- | --- | --- | --- | --- | --- |
| 0.25 | 0.78 | 0.25 | 0.12 | 25 |  | CC(C)OCC(N)C(=O)NC1C(=O)NC(CC(N)=O)C(=O)NC2C(=O)NC3C(=O)NC(C(=O)NC(C(=O)O)c4cc(O)cc(O)c4-c4cc3ccc4O)C(O)c3ccc(c(Cl)c3)Oc3cc2cc(c3OC2OC(CO)C(O)C(O)C2OC2CC(C)(NCc3ccc(-c4ccc(Cl)cc4)cc3)C(O)C(C)O2)Oc2ccc(cc2Cl)C1O (stereo not shown) [Compound 529] |  |  |  |
|  |  | 0.78 | 0.39 |  | 25 | CC1OC(OC2C(Oc3c4cc5cc3Oc3ccc(cc3Cl)C(O)C3NC(=O)C(NC(=O)C5NC(=O)C(CC(N)=O)NC(=O)C(NC(=O)C(N)Cc5c[nH]cn5)C(O)c5ccc(c(Cl)c5)O4)c4ccc(O)c(c4)-c4c(O)cc(O)cc4C(C(=O)O)NC3=O)OC(CO)C(O)C2O)CC(C)(NCc2ccc(-c3ccc(Cl)cc3)cc2)C1O (stereo not shown) [Compound 554] |  |  |  |
|  |  | 0.39 | 0.25 |  | 25 | CC1OC(OC2C(Oc3c4cc5cc3Oc3ccc(cc3Cl)C(O)C3NC(=O)C(NC(=O)C5NC(=O)C(CC(N)=O)NC(=O)C(NC(=O)C(N)COCc5ccccc5)C(O)c5ccc(c(Cl)c5)O4)c4ccc(O)c(c4)-c4c(O)cc(O)cc4C(C(=O)O)NC3=O)OC(CO)C(O)C2O)CC(C)(NCc2ccc(-c3ccc(Cl)cc3)cc2)C1O (stereo not shown) [Compound 338] |  |  |  |
| 0.78 |  | 0.78 | 0.78 |  | 25 | CCCC(N)C(=O)NC1C(=O)NC(CC(N)=O)C(=O)NC2C(=O)NC3C(=O)NC(C(=O)NC(C(=O)O)c4cc(O)cc(O)c4-c4cc3ccc4O)C(O)c3ccc(c(Cl)c3)Oc3cc2cc(c3OC2OC(CO)C(O)C(O)C2OC2CC(C)(NCc3ccc(-c4ccc(Cl)cc4)cc3)C(O)C(C)O2)Oc2ccc(cc2Cl)C1O (stereo not shown) [Compound 341] |  |  |  |
| 0.25 | 0.78 | 0.25 | 0.12 | 25 |  | CC(C)OCC(N)C(=O)NC1C(=O)NC(CC(N)=O)C(=O)NC2C(=O)NC3C(=O)NC(C(=O)NC(C(=O)O)c4cc(O)cc(O)c4-c4cc3ccc4O)C(O)c3ccc(c(Cl)c3)Oc3cc2cc(c3OC2OC(CO)C(O)C(O)C2OC2CC(C)(NCc3ccc(-c4ccc(Cl)cc4)cc3)C(O)C(C)O2)Oc2ccc(cc2Cl)C1O (stereo not shown) [Compound 528] |  |  |  |
| 0.39 | 0.78 | 0.39 | 0.25 | 25 |  | CNC(COC(C)(C)C)C(=O)NC1C(=O)NC(CC(N)=O)C(=O)NC2C(=O)NC3C(=O)NC(C(=O)NC(C(=O)O)c4cc(O)cc(O)c4-c4cc3ccc4O)C(O)c3ccc(c(Cl)c3)Oc3cc2cc(c3OC2OC(CO)C(O)C(O)C2OC2CC(C)(NCc3ccc(-c4ccc(Cl)cc4)cc3)C(O)C(C)O2)Oc2ccc(cc2Cl)C1O (stereo not shown) [Compound 526] |  |  |  |
| 0.39 |  | 0.39 | 0.39 |  | 25 | CNC(C(=O)NC1C(=O)NC(CC(N)=O)C(=O)NC2C(=O)NC3C(=O)NC(C(=O)NC(C(=O)O)c4cc(O)cc(O)c4-c4cc3ccc4O)C(O)c3ccc(c(Cl)c3)Oc3cc2cc(c3OC2OC(CO)C(O)C(O)C2OC2CC(C)(NCc3ccc(-c4ccc(Cl)cc4)cc3)C(O)C(C)O2)Oc2ccc(cc2Cl)C1O)C(C)C (stereo not shown) [Compound 340] |  |  |  |
